The test system of this assay is CEM cells HIV-1 protection, formazan growth assay. As to the kind of experiment: NCI AIDS Antiviral Assay. The following applies: for IC50: measured here: growth of uninfected CEM cells. Summed up:
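Soluble formazan readout of cell growth; CEM cells ± HIV-1; 5 drug concs. ≥50% protection → retest; ≥50% again = moderately active; reproducible 100% = confirmed active.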

Calls of active or inactive are those of the source.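 The calls were made as follows: active = compounds giving half or more protection of infected cells from virus-caused growth loss, again on retest; inactive = the rest.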 Where only a bound is given, the exact number is not on record here.

Consider `CCOC(=O)N1CCN(c2ccc3c(C)cc(C)nc3n2)CC1`, for which the EC50 (usually the concentration at which the effect is half-maximal) is > 200 µM and the IC50 (as a rule, the concentration needed to halve the response being measured) was > 200 µM.
Consider `CC12CCC[C@@](C)(C(=O)OC3OC(CO)C(O)C(O)C3O)[C@H]1CCC13CC4CC(OC4(CO)[C@H]1O)[C@@H]23` (some centres not stated), for which the result was inactive.
Turning to `NC(=O)c1nnn(Cc2cc(Cl)c(C(=O)c3ccc(Cl)cc3)c(Cl)c2)c1N`, the EC50 is > 200 µM.
On to `c1ccc(C2OC23CCCCC3)cc1` (configuration not stated), for which the EC50 is > 200 µM and the IC50 is > 200 µM.
Consider `Oc1ccc(O)c(-n2cccn2)c1-n1cccn1`, for which the EC50 was > 110 µM and the IC50 was 42.7 µM.
The matching figures for `O=C(c1ccc(Cl)cc1)N(C(=S)N1CCN(c2ccccn2)CC1)C1CCCCC1`: > 11.7 µM and 8.51 µM.
For the molecule `CCCc1nc(N)nc(C(=O)Nc2cccc(C(F)(F)F)c2)c1CC`, the EC50 is > 708 µM and the IC50 was > 708 µM.
With `COc1ccc(C(=O)O)c(Cc2cccc3ccccc23)c1`, the result was inactive.
For the molecule `Cc1ccc(O)c(C(c2ccc(C(c3cc(C)ccc3O)c3cc(C)ccc3O)cc2)c2cc(C)ccc2O)c1`, the EC50 was > 20 µM and the IC50 was determined as 3.09 µM.
On to `O=C1C=CC2(CCCCCCC2=O)CC1` (configuration not stated), for which the result was inactive.
On the same count and under the same terms, the value for `Cc1cc2c(c(C(N)=O)c1C)-c1cccc(F)c1C2=O` was “inactive”.
As to `C=C(/C=N/N(C)C)CC1c2c(O)ccc3cccc(c23)N1S(=O)(=O)c1ccc(C)cc1` (configuration not stated), the EC50 is > 10.7 µM and the IC50 was > 10.7 µM.
In the case of `Cc1cn(C2C=CC(COP(=O)(OCC(=O)c3ccccc3)OCC(=O)c3ccccc3)O2)c(=O)[nH]c1=O` (configuration not stated), the concentration giving a half-maximal response (EC50) is 0.851 µM and the IC50 came to 110 µM.
As to `CCSC1=N/C(=C\c2ccco2)C(Nc2ccc(C)cc2)=N1`, the EC50 was > 50.1 µM and the IC50 is > 50.1 µM.
For `Cc1ccc(N2C(=O)CS/C2=C(\C#N)c2nc3ccccc3[nH]2)cc1`, the EC50 was > 200 µM and the IC50 is > 200 µM.
On to `CCCCCC12OCC(C)(C)N1O2` (configuration not stated), for which the EC50 is > 200 µM and the IC50 was 126 µM.
On to `CCN(CC)CCN.[O-][Cl+3]([O-])([O-])[O-].[Pd+2].c1ccc(-c2ccccn2)nc1`, for which the EC50 is > 200 µM and the IC50 was determined as 32.4 µM.
The matching figures for `COC(=O)c1ccc(C(=O)NC(Cc2ccc(Oc3cc(CC(NC(=O)c4ccccc4C(=O)OC)C(=O)OC)ccc3OC)cc2)C(=O)OC)cc1` (configuration not stated): > 200 µM and 16.2 µM.
For the molecule `CCOC(=O)Nc1cc(NC(C)/C(=N/O)c2ccccc2)c([N+](=O)[O-])c(N)n1` (configuration not stated), the result was inactive.
Regarding `OCCN(CCO)c1ncnc2c1sc(=S)n2-c1ccccc1`, the EC50 is > 724 µM and the IC50 was determined as 282 µM.
The matching figures for `c1ccc2sc(SCN3CCN(CSc4nc5ccccc5s4)CC3)nc2c1`: > 1.62 µM and > 1.62 µM.
Regarding `CC(CC=O)Nc1nn2c(=O)c3ccccc3nc2s1` (configuration not stated), the EC50 is > 200 µM and the IC50 was found to be 132 µM.
On the same counts, the results for `CN(C)C1=c2c(=O)n(C)c(=O)n(C)c2=NC2C=CC=CN12` (configuration not stated) are > 174 µM and > 174 µM.
On the same counts, the results for `CCOC(=O)c1c(NC(=O)c2ccc(Br)cc2)sc2c1CCCC2` are > 200 µM and > 200 µM.
Regarding `O=C(c1ccc(Cl)cc1)N(C(=S)N1CCN(c2ccccc2)CC1)C1CCCCC1`, the EC50 is > 6.17 µM and the concentration for half-maximal inhibition (IC50) was > 6.17 µM.
As to `COC(=O)[C@@H]1[C@H]2CC[C@]3(C)[C@@H](OC(C)=O)CC[C@H]3[C@@H]2CC[C@H]1C1(C)SCCS1`, the EC50 is 10 µM and the IC50 was 24 µM.
With `CCOC(=O)C1(C(=O)OCC)CSC1`, the EC50 was > 309 µM and the IC50 is > 309 µM.
In the case of `O=C(NCCCCCCNC(=O)c1ccccn1)c1ccccn1`, the EC50 was > 200 µM and the IC50 is 191 µM.
The matching figures for `C=C(CCCCCOCOCCOC)[Si](C)(C)C`: > 26.3 µM and > 26.3 µM.
Turning to `CCc1c(-c2ccc(OC)cc2)oc(OC)c(C)c1=O`, the EC50 is > 200 µM and the IC50 stood at 40.7 µM.
On the same counts, the results for `COCCCNC(=O)C1C(=O)N(CCCOC)C(=O)/C1=N\N` (configuration not stated) are > 214 µM and > 214 µM.
For the molecule `Cc1nc2cc(Nc3ccccc3C(=O)O)ccc2s1`, the EC50 was > 631 µM and the IC50 turned out to be 158 µM.
Take `O=C(NC1C2CC3CC(C2)CC1C3)c1ccncn1` (configuration not stated): the EC50 was > 513 µM and the IC50 is > 513 µM.
With `O=C(O)C(CO)NC(=O)n1c2ccccc2c2ccccc21` (configuration not stated), the EC50 is > 832 µM and the IC50 was 537 µM.
Consider `COc1ccc(C(CC(=O)c2cccs2)C(=O)c2ccc3c(c2)OCO3)cc1` (configuration not stated), for which the EC50 is > 200 µM and the IC50 was 102 µM.
As for `Nc1ncnc2c1ncn2CC(O)C(=O)O` (configuration not stated), the result was inactive.
The molecule `O=C(O)c1ccc(-c2c3ccc(=O)cc-3oc3cc(O)ccc23)c(C(=O)O)c1` had an EC50 of 60.3 µM and an IC50 of 162 µM.
On to `COc1cc([C@@H]2OC(=O)C3C2C(=O)O[C@H]3c2ccc(O)c(OC)c2)ccc1O` (some centres not stated), for which the outcome was inactive.
In the case of `Clc1cccc(C=NC23CC4CC(CC(C4)C2)C3)c1Cl`, the EC50 is > 200 µM and the 50% inhibitory concentration (IC50) was 13.2 µM.
`Cc1cc(=O)oc2cc(OCc3nc4ccccc4c(=O)n3-c3ccccc3)ccc12`: the EC50 is > 43.7 µM and the IC50 was > 43.7 µM.
In the case of `CC(C)NCC(O)COC(=O)c1cccs1` (configuration not stated), the result was inactive.
Take `Cc1cc(-c2ccccc2)oc(=O)c1NC(=O)c1ccccc1`: the EC50 was > 200 µM and the IC50 is 97.7 µM.
On the same counts, the results for `Cn1c(=O)c2c(nc(N/N=c3/scc(-c4ccccc4)n3Cc3ccccc3)n2C)n(C)c1=O` are > 200 µM and 12.3 µM.
The matching figures for `ClC1(c2ccccc2)c2ccc(Br)cc2-c2cc(Br)ccc21`: > 200 µM and 5.75 µM.
On the same counts, the results for `O=S1C=C(C2=COCCC2)OC1` (configuration not stated) are > 195 µM and > 195 µM.
For `COC(=O)CC=C(c1cc(Cl)c(OC)c(C(=O)OC)c1)c1cc(Cl)c(OC)c(C(=O)OC)c1`, the EC50 was > 200 µM and the IC50 came out at 41.7 µM.
In the case of `COc1c(C)cc2c(C(C)C)c(O)c(O)c(C=O)c2c1O`, the EC50 was > 871 µM and the IC50 was 14.8 µM.
The matching figures for `Cc1cc2c(nn1)CCc1c-2no[n+]1[O-]`: > 200 µM and 174 µM.
On the same counts, the results for `CCOC(=O)c1ccc(CS(=O)(=O)c2ccccc2)c([N+](=O)[O-])c1` are > 102 µM and > 102 µM.
Regarding `O=C1CCC(=O)c2cc(Br)ccc2N1`, the EC50 was > 141 µM and the IC50 was > 141 µM.
Consider `CCOP(=S)(OCC)OC(=O)C(C)SSC` (configuration not stated) (tested in a mixture with another compound), for which the EC50 was > 200 µM and the IC50 was determined as 95.5 µM.
With `COc1cc(O)c(C(=O)c2ccccc2)cc1S(=O)(=O)O`, the EC50 was > 776 µM and the IC50 was > 776 µM.
With `S=C1N(c2ccc(Cl)cc2)C2=C(N=Nc3ccccc3)C(=Nc3ccccc3S2)N1c1ccccn1`, the EC50 was > 50.1 µM and the IC50 was 10 µM.

The values above are taken from PubChem BioAssay AID179 (DTP/NCI, 2004).
